Assay results reported in US8003630B2, “Combinatorial therapies for the treatment of neoplasias using the opioid growth factor receptor” (The Penn State Research Foundation, priority 2004, dated 2011).
Marks after values point to notes of the source that are not given here.

What was measured:
SCC-1 cells [1] = experiment: Cell proliferation assays of SCC-1 cells (MTS or cell counting), Example 8; type: cell-based, human; conditions: for reduction of cell number from control levels: SCC-1, MTS, carboplatin 10^−7 M; for decrease from control levels in absorbency readings: opioids 10^−6 M daily
Protocol: The UM-SCC-1 cell line (SCC-1) was derived from a well-differentiated recurrent squamous cell carcinoma in the floor of the mouth of a person (25). This cell line was obtained from The University of Michigan, Cancer Research Laboratory (Thomas E. Carey, Ph.D., Director). CAL-27 human squamous cell carcinoma cell line, derived from a poorly differentiated carcinoma of the tongue in a person ([…]), was obtained from the American Type Culture Collection (Manassas, Va.). Both cell lines were grown in Dulbecco's MEM (modified) media supplemented with 10% fetal calf serum, 1.2% sodium bicarbonate, and antibiotics (5,000 Units/ml penicillin, 5 mg/ml streptomycin, 10 mg/ml neomycin). The cell cultures were maintained in a humidified atmosphere of 7% CO2/93% air at 37° C.
Cells were seeded at equivalent amounts into either 6-well or 96-well plates (Falcon) and counted 24 hr later to determine plating efficiency.
The dosage of carboplatin selected was based on previous reports (27, 28), as well as preliminary studies in our laboratory.
Cell number was recorded either by using the MTS proliferation bioassay (Cell Titer 96 One Solution, Promega, Madison, Wis.) and measuring absorbency after 4 hr on a Biorad (Model 3550) plate reader at 490 nm with a 750 nm background absorbance screening, or by directly counting cells. The MTS assay utilized 10 wells/treatment. For manual counts, cells were harvested by trypsinization with 0.25% trypsin/0.53 mM EDTA, centrif uiged, and counted with a hemacytometer. Cell viability was determined by trypan blue staining. At least two aliquots per well, and 4-10 wells/treatment, were counted at each time for manual counting.
For some experiments, the rate of growth over a 96-hr period of time was calculated using linear regression analyses. The slopes of the lines (number of cells/hr) were compared by analysis of variance. All calculations were performed with GraphPad Prism software.

SCC-1 cells [2] = experiment: Growth curves of SCC-1 cells, cell proliferation (MTT) assay, absorbency
Description: Cells were counted using a standard MTT assay. In general, each data point represents the average absorbency taken from 10 wells/treatment; error bars represent the S.E.M.

MIA PaCa-2 cells [3] = experiment: Growth assays of MIA PaCa-2 cells (MTS assay or cell counting), Example 7; type: cell-based, human; conditions: for inhibition of cell number relative to controls: opioids 10^−6 M daily; for decrease in cell number relative to controls: OGF 10^−6 M and/or gemcitabine 10^−8 M
Protocol: (§1) MIA PaCa-2 and PANC-1 human pancreatic adenocarcinoma cell lines were purchased from the American Type Culture Collection (Manasass, Va.). MIA PaCa-2 cells were derived from an undifferentiated epithelial carcinoma occurring in the body and tail of the pancreas in a person. The PANC-1 cells were derived from an undifferentiated carcinoma from the head of the pancreas in a person. MIA PaCa-2 and PANC-1 cells were grown in Dulbecco's MEM (modified) media; media was supplemented with 10% fetal calf serum, 1.2% sodium bicarbonate, and antibiotics (5,000 Units/ml penicillin, 5 mg/ml streptomycin, 10 mg/ml neomycin), and the cells were maintained in a humidified atmosphere of 7% CO2/93% air at 37° C.
MIA PaCa-2 cells were seeded at equivalent amounts into either 75 cm^2 flasks, 6-well plates, or 96-well plates (Falcon) and counted 24 hr later to determine plating efficiency. Growth assays for PANC-1 cells were conducted in 6-well plates (Falcon). Compounds or sterile water were added beginning 24 hr after seeding (=0 hr), and both media and compounds were replaced daily. All drugs were prepared in sterile water and dilutions represent final concentrations of the compounds.
(§2) Cell number was recorded either by using a mitogenic bioassay, the MTS assay (Cell Titer 96 One Solution, Promega, Madison, Wis.), and measuring absorbency after 4 hr on a Biorad (Model 3550) plate reader at 490 nm, or by counting cells. For manual counts, cells were harvested with a solution of 0.25% trypsin/0.53 mM EDTA, centrif uiged, and counted with a hemacytometer. Cell viability was determined by trypan blue staining. At least two aliquots per flask or 4-10 wells/treatment were counted at each time.

MiaPaCa-2 cells [4] = experiment: Gemcitabine and OGF cell cycle phase analysis by flow cytometry; type: cell-based, human
Protocol: To investigate the exact cell cycle phase where gemcitabine and/or OGF exerted their effects, flow cytometry was performed.

MiaPaCa-2 cells [5] = experiment: OGF/gemcitabine treatment in athymic nude mouse model (Example 5); type: in vivo, athymic nude mice; conditions: day 16 after tumor cell inoculation
Description: To examine the effectiveness of the combined OGF/gemcitabine treatments in vivo, an athymic nude mouse model was used.

MiaPaCa-2 cells [6] = experiment: Gemcitabine growth curve, actual cell counts; type: cell-based, human; conditions: MiaPaCa-2 cell counts
PANC-1 cells = experiment: Growth assay of PANC-1 cells in 6-well plates; type: cell-based, human; conditions: 72 hr, OGF 10^−6 M and/or gemcitabine 10^−8 M
Protocol: as §1
MIA PaCa-2 cells were seeded at equivalent amounts into either 75 cm^2 flasks, 6-well plates, or 96-well plates (Falcon) and counted 24 hr later to determine plating efficiency. […]
as §2

MIA PaCa-2 cells [7] = experiment: MIA PaCa-2 xenograft in nude mice, tumor appearance, growth and termination day measurements (Example 7); type: in vivo, BALB/c-nu/nu nude mice
Description: Male 4 week old BALB/c-nu/nu nude mice purchased from Harlan Laboratories (Indianapolis, Ind.) were housed in pathogen-free isolators in the Department of Comparative Medicine at the Penn State University College of Medicine. All procedures were approved by the IACUC committee of the Penn State University College of Medicine and conformed to the guidelines established by NIH. Mice were allowed 48 hr to acclimate prior to beginning experimentation.
MIA PaCa-2 cells (10^6 cells/mouse) were inoculated into nude mice by subcutaneous injection into the right scapular region; mice were not anesthetized for this procedure.
All drugs were dissolved in saline and prepared weekly. Injections were given within 1 hr of tumor cell inoculation.
Mice were weighed weekly throughout the experiment, and observed daily for the presence of tumors. The latency for a visible tumor to appear, and the time until tumors were measurable (i.e., 62.5 mm^3) were recorded. Tumors were measured using calipers every day after tumor appearance. Tumor volume was calculated using the formula w^2×1×π/6, where the length is the longest dimension, and width is the dimension perpendicular to length.
According to IACUC guidelines, mice were terminated when tumors became ulcerated, or tumors grew to 2 cm in diameter. Forty-five days following tumor cell inoculation, all mice were euthanized by an overdose of sodium pentobarbital (100 mg/kg) and killed by cervical dislocation; mice (with tumors) were weighed. Tumors and spleens were removed and weighed, and the lymph nodes, liver, and spleen examined for metastases.

N.N.O=C([O-])C1(C(=O)[O-])CCC1.[Pt+2] [carboplatin]
reduction of cell number from control levels (SCC-1 cells [1]; 72 hr): 19% | reduction of cell number from control levels (SCC-1 cells [1]; 96 hr): 21% | decrease in cell number relative to controls (SCC-1 cells [2]; 48 h, carboplatin 10^−6 M and/or OGF 10^−6 M): 5.3% | decrease in cell number relative to controls (SCC-1 cells [2]; 72 h, carboplatin 10^−6 M and/or OGF 10^−6 M): 21.8% | decrease in cell number relative to controls (SCC-1 cells [2]; 72 h, carboplatin 10^−7 M alone or with OGF 10^−6 M): 18.7% | decrease in cell number relative to controls (SCC-1 cells [2]; 96 h, carboplatin 10^−6 M and/or OGF 10^−6 M): 24.9% | decrease in cell number relative to controls (SCC-1 cells [2]; 96 h, carboplatin 10^−7 M alone or with OGF 10^−6 M): 21%

β-endorphin (YGGFMTSEKSQTPLVTLFKNAIIKNAYKKGE; Beta-endorphin; UniProt P01189 237-267, looked up)
inhibition of cell number relative to controls (MIA PaCa-2 cells [3]; MIA PaCa-2, 96 hr): none of the other drugs utilized had any inhibitory or stimulatory effect on growth | decrease from control levels in absorbency readings (SCC-1 cells [1]; SCC-1): none of the drugs utilized had any inhibitory or stimulatory effect on growth

endomorphin-2
inhibition of cell number relative to controls (MIA PaCa-2 cells [3]; MIA PaCa-2, 96 hr): none of the other drugs utilized had any inhibitory or stimulatory effect on growth | decrease from control levels in absorbency readings (SCC-1 cells [1]; SCC-1): none of the drugs utilized had any inhibitory or stimulatory effect on growth

CC(C)C[C@@H](NC(=O)[C@H](Cc1ccccc1)NC(=O)CNC(=O)[C@@H](C)NC(=O)[C@@H](N)Cc1ccc(O)cc1)C(=O)O [DADLE, [D-Ala-D-Leu-enkephalin]]
inhibition of cell number relative to controls (MIA PaCa-2 cells [3]; MIA PaCa-2, 96 hr): none of the other drugs utilized had any inhibitory or stimulatory effect on growth | decrease from control levels in absorbency readings (SCC-1 cells [1]; SCC-1): none of the drugs utilized had any inhibitory or stimulatory effect on growth

CN1CC[C@]23c4c5ccc(O)c4O[C@H]2[C@@H](O)C=C[C@H]3[C@H]1C5 [morphine]
inhibition of cell number relative to controls (MIA PaCa-2 cells [3]; MIA PaCa-2, 96 hr): none of the other drugs utilized had any inhibitory or stimulatory effect on growth | decrease from control levels in absorbency readings (SCC-1 cells [1]; SCC-1): none of the drugs utilized had any inhibitory or stimulatory effect on growth

[D-Pen^2,5]-enkephalin [DPDPE]
inhibition of cell number relative to controls (MIA PaCa-2 cells [3]; MIA PaCa-2, 96 hr): none of the other drugs utilized had any inhibitory or stimulatory effect on growth | decrease from control levels in absorbency readings (SCC-1 cells [1]; SCC-1): none of the drugs utilized had any inhibitory or stimulatory effect on growth

endomorphin-1
inhibition of cell number relative to controls (MIA PaCa-2 cells [3]; MIA PaCa-2, 96 hr): none of the other drugs utilized had any inhibitory or stimulatory effect on growth | decrease from control levels in absorbency readings (SCC-1 cells [1]; SCC-1): none of the drugs utilized had any inhibitory or stimulatory effect on growth

Nc1ccn([C@@H]2O[C@H](CO)[C@@H](O)C2(F)F)c(=O)n1 [gemcitabine]
cells in the G1 phase of the cell cycle (MiaPaCa-2 cells [4]; 48 hours of treatment): 73.50% | cells in the G1 phase of the cell cycle (MiaPaCa-2 cells [4]; 120 hours of treatment): 60.75% | mice with tumors (MiaPaCa-2 cells [5]): 75% | decrease in cell number relative to controls (MiaPaCa-2 cells [6]; 24 h, gemcitabine 10^−7 M or OGF 10^−6 M alone): 30.1% | decrease in cell number relative to controls (MiaPaCa-2 cells [6]; 48 h, gemcitabine 10^−7 M or OGF 10^−6 M alone): 46.4% | decrease in cell number relative to controls (MiaPaCa-2 cells [6]; 48 h, gemcitabine 10^−8 M alone or with OGF 10^−6 M): 21.7% | decrease in cell number relative to controls (MiaPaCa-2 cells [6]; 72 h, gemcitabine 10^−7 M or OGF 10^−6 M alone): 47.7% | decrease in cell number relative to controls (MiaPaCa-2 cells [6]; 72 h, gemcitabine 10^−8 M alone or with OGF 10^−6 M): 21.2% | decrease in cell number relative to controls (MiaPaCa-2 cells [6]; 96 h, gemcitabine 10^−7 M or OGF 10^−6 M alone): 64.2% | decrease in cell number relative to controls (MiaPaCa-2 cells [6]; 96 h, gemcitabine 10^−8 M alone or with OGF 10^−6 M): 32.4% | inhibition at 0.01 µM (MIA PaCa-2 cells [3]; Homo sapiens, MIA PaCa-2, 96 h, read-out: inhibition of cell growth relative to control levels): 13 to 36% | decrease in cell number relative to controls (MIA PaCa-2 cells [3]; MIA PaCa-2, 48 hr): 22% | decrease in cell number relative to controls (MIA PaCa-2 cells [3]; MIA PaCa-2, 72 hr): 21% | difference in cell number between reversal group and group continuing drug exposure (MIA PaCa-2 cells [3]; MIA PaCa-2, 96 hr (48 hr after reversal)): did not differ | decrease in cell number relative to controls (MIA PaCa-2 cells [3]; MIA PaCa-2, 96 hr): 32% | fewer cells than in control cultures (PANC-1 cells): 31% | day from which tumor volume differed from controls (MIA PaCa-2 cells [7]; at least p<0.05): 14 days | mice with measurable tumors (MIA PaCa-2 cells [7]; day 10): 75% | tumor volumes decreased from control values (MIA PaCa-2 cells [7]; day 45): 56% | weight of the spleen decreased from control values (MIA PaCa-2 cells [7]; day 45): approximately 40% | Body Weight (MIA PaCa-2 cells [7]; day 45, means ± SEM): 27.4 ± 0.55 g | Spleen Weight (MIA PaCa-2 cells [7]; day 45, means ± SEM): 454 ± 49 mg | Tumor Volume, mm^3 (MIA PaCa-2 cells [7]; day 45, means ± SEM): 3963 ± 123*** mm^3 | Tumor Weight (MIA PaCa-2 cells [7]; day 45, means ± SEM): 2.4 ± 0.1 g | Latency to measurable tumor (MIA PaCa-2 cells [7]; means ± SEM): 13.1 ± 1.0 days | Latency to visible tumor (MIA PaCa-2 cells [7]; means ± SEM): 11.1 ± 1.1 days | Tumor Incidence, day 16 (MIA PaCa-2 cells [7]; mice with tumor/N): 11/12 | Tumor Incidence, day 10 (MIA PaCa-2 cells [7]; mice with tumor/N, OGF 10 mg/kg daily and/or gemcitabine 120 mg/kg every 3 days i.p.): 9/12 | weights of tumors decreased from control levels (MIA PaCa-2 cells [7]; termination day (day 45)): 56%

C[C@@H](NC(=O)[C@@H](N)Cc1ccc(O)cc1)C(=O)NCC(=O)N(C)[C@@H](Cc1ccccc1)C(=O)NCCO [DAMGO, [D-Ala^2, MePhe^4, Glyol^5]-enkephalin]
inhibition of cell number relative to controls (MIA PaCa-2 cells [3]; MIA PaCa-2, 96 hr): none of the other drugs utilized had any inhibitory or stimulatory effect on growth | decrease from control levels in absorbency readings (SCC-1 cells [1]; SCC-1): none of the drugs utilized had any inhibitory or stimulatory effect on growth

C=CCN1CC[C@]23c4c5ccc(O)c4O[C@H]2C(=O)CC[C@@]3(O)[C@H]1C5 [naloxone]
effect of naloxone on growth and growth inhibition (MIA PaCa-2 cells [3]; MIA PaCa-2, 96 hr, naloxone 10^−6 M): had no effect on the growth of MIA PaCa-2 cells | effect of naloxone on growth and growth inhibition (SCC-1 cells [1]; SCC-1, naloxone 10^−6 M): had no effect on growth

dynorphin 1-13 (YGGFLRRIRPKLK; Dynorphin A(1-13); UniProt P01213 207-219, looked up, fragment)
decrease from control levels in absorbency readings (SCC-1 cells [1]; SCC-1): none of the drugs utilized had any inhibitory or stimulatory effect on growth

dynorphin A1-8 (YGGFLRRI; Dynorphin A(1-8); UniProt P01213 207-214, looked up, fragment)
inhibition of cell number relative to controls (MIA PaCa-2 cells [3]; MIA PaCa-2, 96 hr): none of the other drugs utilized had any inhibitory or stimulatory effect on growth
